Earlier results on one compound are cited in patent US9662322B2 (TEVA PHARMACEUTICAL INDUSTRIES, LTD., priority 2014, dated 2017).

The conditions of this series: cited from earlier work.

Structures are written as SMILES.

Consider `CCN(C(=O)c1c(O)c2c(Cl)cccc2n(C)c1=O)c1ccccc1` [Laquinimod sodium], for which the Oral bioavailability result was “high”.
